Values after ≈ are worked out from the molar mass of the structure shown.
Details: for aqueous solubility: pH 6.8

Compound	MDR1-MDCK efflux ratio	intrinsic clearance, human liver microsomes	intrinsic clearance, rat liver microsomes	aqueous solubility	fraction unbound, human plasma	fraction unbound, rat plasma
O=C1Oc2nc3cc4c(cc3cc2CN1CCN1CCOCC1)OCO4	2.42	5.18 mL/min/kg	28.8 mL/min/kg	9.6 µg/mL (≈ 26.9 µM)	–	–
CCc1nsc(N2CCS(=O)(=O)CC2)n1	–	≤ 4.74 mL/min/kg	≤ 10.7 mL/min/kg	–	–	–
CN1CCC(O)(CNC(=O)C2CCCCCC2)CC1	11.2	≤ 4.74 mL/min/kg	458 mL/min/kg	–	–	–
COc1ccc(C)cc1-n1ccc(C(=O)Nc2c3c(nn2C)CCC3)n1	1.45	46.5 mL/min/kg	255 mL/min/kg	33.2 µg/mL (≈ 94.5 µM)	–	–
COCC(=O)Nc1ccc(NC(=O)Cc2cc(C)ccc2C)cc1	1.2	36.6 mL/min/kg	76.6 mL/min/kg	–	–	–
CC1(c2nnc(-c3cc(-c4ccccc4)n[nH]3)o2)CCOCC1	1.21	13.5 mL/min/kg	179 mL/min/kg	18.4 µg/mL (≈ 59.1 µM)	–	–
Cc1cc(Nc2ncccn2)cc(C2CCCN(CC(=O)Nc3ccc(F)cc3)C2)n1 (stereo unspecified)	8.32	64.4 mL/min/kg	456 mL/min/kg	–	–	–
Cc1ccc(C)c(S(=O)(=O)N2CCCN(C3CCC3)CC2)c1	0.605	214 mL/min/kg	2150 mL/min/kg	57.9 µg/mL (≈ 179 µM)	–	–
C=CC(=O)N1CCC[C@@H](n2nc(-c3cccc(C(=O)Nc4ccc(C(C)C)c(C)c4)c3)c3c(N)ncnc32)C1	34.9	–	–	0.17 µg/mL (≈ 0.325 µM)	–	–
O=C(CNC(=O)c1ccc(Cl)cc1)Nc1nc(-c2ccc3ccccc3c2)cs1	–	–	–	0.4 µg/mL (≈ 0.948 µM)	–	–
CN1C(=O)c2ccc(C(=O)N3CCN(C4CCCCC4)CC3)cc2C1=O	–	18.5 mL/min/kg	137 mL/min/kg	–	–	–
O=C(CSc1ccc(F)cc1)N1CCCC1	0.746	9.35 mL/min/kg	117 mL/min/kg	36.2 µg/mL (≈ 151 µM)	–	–
O=C(NC1CCCCC1)N1CCc2nc3ccccn3c(=O)c2C1	–	≤ 4.74 mL/min/kg	123 mL/min/kg	50 µg/mL (≈ 153 µM)	–	–
Cc1cccc(COc2cccc(/C=C3\C(=O)NN(c4ccccc4)C3=O)c2)c1	–	66.3 mL/min/kg	294 mL/min/kg	5.16 µg/mL (≈ 13.4 µM)	–	–
C=CCN(Cc1cccnc1)c1nc(C)nc2sccc12	0.798	188 mL/min/kg	1480 mL/min/kg	45.5 µg/mL (≈ 154 µM)	–	–
CN(Cc1ccccc1)C1(C(=O)N2CCNC(=O)CC2)Cc2ccccc2C1	8.66	113 mL/min/kg	2760 mL/min/kg	–	0.0803	0.0818
O=S(=O)(N1CCOCC1)N1CCN(Cc2ccccc2F)CC1	0.958	21 mL/min/kg	676 mL/min/kg	36 µg/mL (≈ 105 µM)	–	–
C[C@@H]1c2nnn(-c3ncc(F)cn3)c2CCN1C(=O)c1cccc(C(F)(F)F)c1Cl	3.42	≤ 4.74 mL/min/kg	≤ 10.7 mL/min/kg	35.4 µg/mL (≈ 80.2 µM)	0.0931	0.174
COCC1(CNC(=O)c2cc(Cl)cnc2O)CCC1	5.64	16.3 mL/min/kg	475 mL/min/kg	–	–	–
O=C(Cn1nc(Cc2ccccc2)c2ccccc2c1=O)NCc1ncc[nH]1	92.6	50.9 mL/min/kg	3330 mL/min/kg	–	–	–

Compound	MDR1-MDCK efflux ratio	intrinsic clearance, human liver microsomes	intrinsic clearance, rat liver microsomes	aqueous solubility	fraction unbound, human plasma	fraction unbound, rat plasma
COc1cccc(C(=O)C[n+]2cc(-c3ccc(F)cc3)n(C)c2N)c1	26.3	≤ 4.74 mL/min/kg	45.2 mL/min/kg	74.1 µg/mL	–	–
NC(=O)c1ccc(Oc2ccc(C(=O)N3CCCCCC3)cc2)cc1	4.9	11.4 mL/min/kg	82.3 mL/min/kg	59.8 µg/mL (≈ 177 µM)	–	–
Cc1cc(N2CCCC2)nc(C2CCCN(C)C2)n1 (stereo unspecified)	–	9.21 mL/min/kg	331 mL/min/kg	–	1	0.727
CC(C)N(C)S(=O)(=O)N1CCC(CNC(=O)CCCn2cccn2)CC1	57.9	16.3 mL/min/kg	285 mL/min/kg	–	–	–
CC1CCN([C@H](c2ccc(F)cc2)c2ccc([C@@H](C)C(=O)O)cc2-c2ccc(C(F)(F)F)cc2)CC1	1.99	7.84 mL/min/kg	17.7 mL/min/kg	39.5 µg/mL (≈ 79.1 µM)	–	–
N#Cc1cc2c(nc1SCc1cccnc1)CCCCCC2	0.913	–	–	0.22 µg/mL (≈ 0.711 µM)	–	–
Cn1cc(-c2ccc3nnc(C(F)(F)c4ccc5ncccc5c4)n3n2)cn1	9.46	≤ 4.74 mL/min/kg	59.2 mL/min/kg	43 µg/mL (≈ 114 µM)	–	–
CSc1ccc(-c2ccc3n(c2=O)C[C@H]2C[C@@H]3CN(C(=O)c3ccncc3)C2)cc1	44	54 mL/min/kg	357 mL/min/kg	37.5 µg/mL (≈ 89.8 µM)	–	–
Cc1cc(C)cc(OCCN(C)C(=O)NCCS(=O)(=O)N(C)C)c1	12.1	37.4 mL/min/kg	1090 mL/min/kg	–	–	–
Cc1cccc(NCCN2C(=O)CCC2=O)n1	0.667	≤ 4.74 mL/min/kg	49.9 mL/min/kg	–	–	–
O=C1NCC2(C/C=C/CCOc3ccccc31)CCN(C(=O)c1ccc3[nH]nnc3c1)CC2	45.8	42.8 mL/min/kg	165 mL/min/kg	24.4 µg/mL (≈ 54.9 µM)	–	–
COc1ccc(=O)n(Cc2noc3c2CCCC3)n1	0.806	11.4 mL/min/kg	270 mL/min/kg	–	–	–
COc1ccc(CNc2c(-c3ccc(OC)c(OC)c3)nc3cnccn23)cc1	2.42	675 mL/min/kg	1950 mL/min/kg	46.9 µg/mL (≈ 120 µM)	–	–
Cc1csc(N(C(=O)c2ccc(-n3cncn3)c(F)c2)C2CC2)n1	0.63	16.5 mL/min/kg	215 mL/min/kg	53.3 µg/mL (≈ 155 µM)	–	–
Cc1cc(C(=O)N2CCS(=O)(=O)CC2)c(C)o1	–	≤ 4.74 mL/min/kg	≤ 10.7 mL/min/kg	–	–	–
Cc1cc(NC(=O)c2c(F)cccc2Cl)no1	–	≤ 4.74 mL/min/kg	26 mL/min/kg	–	–	–
O=C(Nc1nc(-c2cccnc2)cs1)C1CCCCC1	0.497	–	–	0.21 µg/mL (≈ 0.731 µM)	–	–
O=C(NCc1cccnc1)c1sccc1-c1ccccc1	1.1	45.2 mL/min/kg	867 mL/min/kg	65.6 µg/mL (≈ 223 µM)	–	–
COc1cccc(OC)c1-c1cc(C(=O)N[C@@H](CC(C)C)C(=O)O)nn1-c1ccnc2cc(Cl)ccc12	39.1	9.49 mL/min/kg	108 mL/min/kg	90.4 µg/mL (≈ 173 µM)	–	–

From the Biogen ADME set (Fang et al. 2023)
